Patent publication US8853203B2, “Diazepinone derivatives” (Novartis AG, priority 2012, dated 2014)

Columns and labels:
human mGluR5a receptors = human mGluR5a receptors (Homo sapiens (Human), UniProt P41594); experiment: inhibition of glutamate-induced elevation of intracellular calcium in L(tk-) cells expressing human mGluR5a; type: cell-based; settings: glutamate-induced intracellular calcium elevation, L(tk-) cells expressing human mGluR5a; read-out: mGluR5 IC50
Excerpt: Activity of compounds of the present invention was examined by determination to what extent the glutamate-induced elevation of the intracellular calcium concentration in L(tk-) cells expressing human mGluR5a receptors (see L. P. Daggett et al., Neuropharm. Vol. 34, pages 871-886, 1995) is inhibited by utilizing methods as described e.g. by L. P. Daggett et al., Neuropharm. Vol. 34, pages 871-886 (1995) and P. J. Flor et al., J. Neurochem. Vol. 67, pages 58-63 (1996).

human mGluR1 = human mGluR1 (Homo sapiens (Human), UniProt Q13255); experiment: mGluR1 antagonism, L-glutamate induced intracellular calcium increase (FLIPR) in CHO cells stably expressing human mGluR1; type: cell-based; settings: for IC50: L-glutamate induced intracellular calcium, CHO cells expressing human mGluR1, FLIPR; for inhibition at 10 µM: CHO
Excerpt: Activity of compounds of the present invention with respect to mGluR1 antagonism was examined by an assay based on measurements of L-glutamate induced intracellular calcium increases using a 96 well plate-based Fluorometric Imaging Plate Reader (FLIPR), and CHO cells stably expressing human mGluR1. L-glutamate induced robust calcium responses via human mGluR1 in a concentration-dependent manner and in the low micromolar range. The table below represents IC50 values of the inhibition of the glutamate-induced elevation of the intracellular calcium concentration.

Chain of human mGluR5a receptors (P41594 other isoform, or with tags, fused parts or gaps): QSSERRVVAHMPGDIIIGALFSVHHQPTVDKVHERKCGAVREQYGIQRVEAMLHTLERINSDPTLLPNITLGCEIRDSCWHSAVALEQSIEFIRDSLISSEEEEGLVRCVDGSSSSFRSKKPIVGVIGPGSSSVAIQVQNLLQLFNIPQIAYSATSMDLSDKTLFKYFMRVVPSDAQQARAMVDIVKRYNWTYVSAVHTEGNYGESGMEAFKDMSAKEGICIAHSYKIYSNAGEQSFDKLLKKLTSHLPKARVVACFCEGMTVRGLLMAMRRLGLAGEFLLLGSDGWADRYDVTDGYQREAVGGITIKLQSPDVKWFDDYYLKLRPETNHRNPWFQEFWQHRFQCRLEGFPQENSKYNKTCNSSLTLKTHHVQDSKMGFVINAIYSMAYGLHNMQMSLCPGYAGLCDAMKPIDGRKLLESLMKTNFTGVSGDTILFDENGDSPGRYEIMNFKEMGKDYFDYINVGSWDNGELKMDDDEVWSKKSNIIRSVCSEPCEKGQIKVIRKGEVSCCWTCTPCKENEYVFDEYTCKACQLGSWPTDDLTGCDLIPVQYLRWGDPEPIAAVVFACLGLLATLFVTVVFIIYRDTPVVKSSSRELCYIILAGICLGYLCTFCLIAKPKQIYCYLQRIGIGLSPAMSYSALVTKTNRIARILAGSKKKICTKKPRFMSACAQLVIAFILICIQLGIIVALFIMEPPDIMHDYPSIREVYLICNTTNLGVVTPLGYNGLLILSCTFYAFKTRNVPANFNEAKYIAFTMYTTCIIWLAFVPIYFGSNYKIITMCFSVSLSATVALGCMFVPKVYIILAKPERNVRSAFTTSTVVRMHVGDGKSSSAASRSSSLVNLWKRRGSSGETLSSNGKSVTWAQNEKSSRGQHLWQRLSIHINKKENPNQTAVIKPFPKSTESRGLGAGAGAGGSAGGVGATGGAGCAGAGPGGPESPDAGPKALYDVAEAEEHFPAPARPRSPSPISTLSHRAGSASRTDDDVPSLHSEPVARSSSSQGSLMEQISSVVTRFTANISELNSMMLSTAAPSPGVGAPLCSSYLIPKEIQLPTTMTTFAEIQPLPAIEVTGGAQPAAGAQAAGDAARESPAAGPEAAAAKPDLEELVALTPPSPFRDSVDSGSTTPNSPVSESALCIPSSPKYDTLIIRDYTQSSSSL
Chain of human mGluR1 (Q13255 19-1194): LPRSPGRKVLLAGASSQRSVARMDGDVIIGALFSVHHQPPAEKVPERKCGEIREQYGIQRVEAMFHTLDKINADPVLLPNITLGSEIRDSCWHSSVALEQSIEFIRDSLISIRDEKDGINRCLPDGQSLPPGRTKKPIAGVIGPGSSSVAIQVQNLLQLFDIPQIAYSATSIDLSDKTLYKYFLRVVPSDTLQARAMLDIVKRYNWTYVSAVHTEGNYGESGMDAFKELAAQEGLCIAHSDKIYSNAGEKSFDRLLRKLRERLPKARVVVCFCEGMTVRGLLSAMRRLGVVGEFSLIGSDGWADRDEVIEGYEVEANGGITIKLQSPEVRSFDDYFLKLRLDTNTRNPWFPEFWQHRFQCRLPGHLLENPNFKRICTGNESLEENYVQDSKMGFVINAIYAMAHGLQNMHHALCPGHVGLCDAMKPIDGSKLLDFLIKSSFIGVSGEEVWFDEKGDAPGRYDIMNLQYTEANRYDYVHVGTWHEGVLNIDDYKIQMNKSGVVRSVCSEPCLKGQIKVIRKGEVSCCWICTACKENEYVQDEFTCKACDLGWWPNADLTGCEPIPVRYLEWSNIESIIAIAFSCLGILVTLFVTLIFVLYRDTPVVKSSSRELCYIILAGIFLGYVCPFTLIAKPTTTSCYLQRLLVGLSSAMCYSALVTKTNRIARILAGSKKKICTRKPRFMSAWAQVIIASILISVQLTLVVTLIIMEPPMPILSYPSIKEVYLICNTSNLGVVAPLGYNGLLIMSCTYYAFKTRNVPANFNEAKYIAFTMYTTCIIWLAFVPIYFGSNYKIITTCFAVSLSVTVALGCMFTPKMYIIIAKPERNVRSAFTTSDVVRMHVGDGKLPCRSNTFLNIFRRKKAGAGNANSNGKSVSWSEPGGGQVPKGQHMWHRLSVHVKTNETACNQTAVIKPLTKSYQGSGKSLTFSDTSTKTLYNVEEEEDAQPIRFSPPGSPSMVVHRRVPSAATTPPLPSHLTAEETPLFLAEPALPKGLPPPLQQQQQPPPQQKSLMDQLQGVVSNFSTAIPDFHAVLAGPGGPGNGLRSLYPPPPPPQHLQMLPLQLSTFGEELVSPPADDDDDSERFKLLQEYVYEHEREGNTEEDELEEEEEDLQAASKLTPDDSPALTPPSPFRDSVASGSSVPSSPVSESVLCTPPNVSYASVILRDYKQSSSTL

IC50 (human mGluR5a receptors) [nM] | IC50 (human mGluR1) [nM] | inhibition at 10 µM (human mGluR1) [%] | Compound
535 | 3200 | – | O=C1CN=C(n2cnc(C(F)(F)F)c2)C=C2c3cccc(I)c3CCN12 [Example 63, 9-iodo-2-(4-(trifluoromethyl)-1H-imidazol-1-yl)-7,8-dihydro-[1,4]diazepino[7,1-a]isoquinolin-5(4H)-one]
4300 | > 10000 | – | N#Cc1cn(C2=NCC(=O)N3CCc4c(I)cccc4C3=C2)cn1 [Example 64, 1-(9-iodo-5-oxo-4,5,7,8-tetrahydro-[1,4]diazepino[7,1-a]isoquinolin-2-yl)-1H-imidazole-4-carbonitrile]
210 | 1500 | – | O=C1CN=C(n2cnc(CO)c2)C=C2c3cccc(I)c3CCN12 [Example 65, 2-(4-(hydroxymethyl)-1H-imidazol-1-yl)-9-iodo-7,8-dihydro-[1,4]diazepino[7,1-a]isoquinolin-5(4H)-one]
780 | > 10000 | – | COC(=O)c1cn(C2=NCC(=O)N3CCc4c(I)cccc4C3=C2)cn1 [Example 66, methyl 1-(9-iodo-5-oxo-4,5,7,8-tetrahydro-[1,4]diazepino[7,1-a]isoquinolin-2-yl)-1H-imidazole-4-carboxylate]
715 | 1400 | – | Cc1cn(C2=NCC(=O)N3CCc4c(I)cccc4C3=C2)c(C)n1 [Example 67, 2-(2,4-dimethyl-1H-imidazol-1-yl)-9-iodo-7,8-dihydro-[1,4]diazepino[7,1-a]isoquinolin-5(4H)-one]
1700 | > 10000 | – | CCOC(=O)c1cn(C2=NCC(=O)N3CCc4c(I)cccc4C3=C2)cn1 [Example 68, ethyl 1-(9-iodo-5-oxo-4,5,7,8-tetrahydro-[1,4]diazepino[7,1-a]isoquinolin-2-yl)-1H-imidazole-4-carboxylate]
20 | > 10000 | – | O=C1CN=C(n2cnc(C3CCC3)c2)C=C2c3cccc(-n4cccn4)c3CCN12 [Example 69, 2-(4-cyclobutyl-1H-imidazol-1-yl)-9-(1H-pyrazol-1-yl)-7,8-dihydro-[1,4]diazepino[7,1-a]isoquinolin-5(4H)-one]
49 | > 10000 | – | O=C1CN=C(n2cnc(C3CCC3)c2)C=C2c3cccc(N4CCOCC4)c3CCN12 [Example 70, 2-(4-cyclobutyl-1H-imidazol-1-yl)-9-morpholino-7,8-dihydro-[1,4]diazepino[7,1-a]isoquinolin-5(4H)-one]
275 | > 10000 | – | CC(C)c1cn(C2=NCC(=O)N3CCc4c(cccc4-c4cnn(C)c4)C3=C2)cn1 [Example 72, 2-(4-isopropyl-1H-imidazol-1-yl)-9-(1-methyl-1H-pyrazol-4-yl)-7,8-dihydro-[1,4]diazepino[7,1-a]isoquinolin-5(4H)-one]
3500 | > 10000 | – | CC(C)c1cn(C2=NCC(=O)N3CCc4c(cccc4-c4nccn4C)C3=C2)cn1 [Example 73, 2-(4-isopropyl-1H-imidazol-1-yl)-9-(1-methyl-1H-imidazol-2-yl)-7,8-dihydro-[1,4]diazepino[7,1-a]isoquinolin-5(4H)-one]
22 | 1200 | – | CCc1cn(C2=NCC(=O)N3CCc4c(cccc4-c4ncco4)C3=C2)cn1 [Example 74, 2-(4-ethyl-1H-imidazol-1-yl)-9-(oxazol-2-yl)-7,8-dihydro-[1,4]diazepino[7,1-a]isoquinolin-5(4H)-one]
9 | 170 | – | CCc1cn(C2=NCC(=O)N3CCc4c(cccc4-c4ccco4)C3=C2)cn1 [Example 75, 2-(4-ethyl-1H-imidazol-1-yl)-9-(furan-2-yl)-7,8-dihydro-[1,4]diazepino[7,1-a]isoquinolin-5(4H)-one]
34 | 4200 | – | COCCc1cn(C2=NCC(=O)N3CCc4c(cccc4-c4cscn4)C3=C2)cn1 [Example 76, 2-(4-(2-methoxyethyl)-1H-imidazol-1-yl)-9-(thiazol-4-yl)-7,8-dihydro-[1,4]diazepino[7,1-a]isoquinolin-5(4H)-one]
32 | – | 73 | COCc1cn(C2=NCC(=O)N3CCc4c(cccc4-c4ncc(C)s4)C3=C2)cn1 [Example 77]
540 | > 10000 | – | Cc1cn(C2=NCC(=O)N3CCc4c(cccc4-c4cncnc4)C3=C2)cn1 [Example 78, 2-(4-methyl-1H-imidazol-1-yl)-9-(pyrimidin-5-yl)-7,8-dihydro-[1,4]diazepino[7,1-a]isoquinolin-5(4H)-one]
130 | > 10000 | – | Cc1cn(C2=NCC(=O)N3CCc4c(cccc4-c4cccnc4)C3=C2)cn1 [Example 79, 2-(4-methyl-1H-imidazol-1-yl)-9-(pyridin-3-yl)-7,8-dihydro-[1,4]diazepino[7,1-a]isoquinolin-5(4H)-one]
145 | > 10000 | – | Cc1cn(C2=NCC(=O)N3CCc4c(cccc4-c4ccncc4)C3=C2)cn1 [Example 80, 2-(4-methyl-1H-imidazol-1-yl)-9-(pyridin-4-yl)-7,8-dihydro-[1,4]diazepino[7,1-a]isoquinolin-5(4H)-one]
36 | > 10000 | – | Cc1cn(C2=NCC(=O)N3CCc4c(cccc4-c4ccc(F)nc4)C3=C2)cn1 [Example 81, 9-(6-fluoropyridin-3-yl)-2-(4-methyl-1H-imidazol-1-yl)-7,8-dihydro-[1,4]diazepino[7,1-a]isoquinolin-5(4H)-one]
72 | > 10000 | – | Cc1cn(C2=NCC(=O)N3CCc4c(cccc4-c4cncs4)C3=C2)cn1 [Example 82, 2-(4-methyl-1H-imidazol-1-yl)-9-(thiazol-5-yl)-7,8-dihydro-[1,4]diazepino[7,1-a]isoquinolin-5(4H)-one]
205 | > 10000 | – | O=C1CN=C(n2cnc(Cl)c2)C=C2c3cccc(-c4cncc(F)c4)c3CCN12 [Example 83, 2-(4-chloro-1H-imidazol-1-yl)-9-(5-fluoropyridin-3-yl)-7,8-dihydro-[1,4]diazepino[7,1-a]isoquinolin-5(4H)-one]
28 | > 10000 | – | COCCc1cn(C2=NCC(=O)N3CCc4c(cccc4-c4ccc(F)nc4)C3=C2)cn1 [Example 84, 9-(6-fluoropyridin-3-yl)-2-(4-(2-methoxyethyl)-1H-imidazol-1-yl)-7,8-dihydro-[1,4]diazepino[7,1-a]isoquinolin-5(4H)-one]
39 | 1600 | – | C=Cc1cccc2c1CCN1C(=O)CN=C(n3cnc(COC)c3)C=C21 [Example 85, 2-(4-(methoxymethyl)-1H-imidazol-1-yl)-9-vinyl-7,8-dihydro-[1,4]diazepino[7,1-a]isoquinolin-5(4H)-one]
12 | 5900 | – | CCc1cn(C2=NCC(=O)N3CCc4c(cccc4-c4ccc(F)cc4)C3=C2)cn1 [Example 86, 2-(4-ethyl-1H-imidazol-1-yl)-9-(4-fluorophenyl)-7,8-dihydro-[1,4]diazepino[7,1-a]isoquinolin-5(4H)-one]
148 | – | 56 | Cc1coc(-c2cccc3c2CCN2C(=O)CN=C(n4cnc(C5CC5)c4)C=C32)n1 [Example 87, 2-(4-cyclopropyl-1H-imidazol-1-yl)-9-(4-methyloxazol-2-yl)-7,8-dihydro-[1,4]diazepino[7,1-a]isoquinolin-5(4H)-one]
131 | – | 47 | Cc1cnc(-c2cccc3c2CCN2C(=O)CN=C(n4cnc(C5CC5)c4)C=C32)o1 [Example 88, 2-(4-cyclopropyl-1H-imidazol-1-yl)-9-(5-methyloxazol-2-yl)-7,8-dihydro-[1,4]diazepino[7,1-a]isoquinolin-5(4H)-one]
5 | – | 24 | CCCc1cccc2c1CCN1C(=O)CN=C(n3cnc(-c4ncco4)c3)C=C21 [Example 88a, 2-(4-(oxazol-2-yl)-1H-imidazol-1-yl)-9-propyl-7,8-dihydro-[1,4]diazepino[7,1-a]isoquinolin-5(4H)-one]
20 | > 2000 | – | O=C1CN=C(n2cnc(C3CC3)n2)C=C2c3cccc(-c4nccnc4F)c3CCN12 [Example 88b, 2-(3-cyclopropyl-1H-1,2,4-triazol-1-yl)-9-(3-fluoropyrazin-2-yl)-7,8-dihydro-[1,4]diazepino[7,1-a]isoquinolin-5(4H)-one]
271 | > 10000 | – | O=C1CN=C(n2cnc(C3CC3)n2)C=C2c3cccc(-c4ncccc4F)c3CCN12 [Example 88c, 2-(3-cyclopropyl-1H-1,2,4-triazol-1-yl)-9-(3-fluoropyridin-2-yl)-7,8-dihydro-[1,4]diazepino[7,1-a]isoquinolin-5(4H)-one]
31 | > 2000 | – | O=C1CN=C(n2cnc(C3CC3)c2)C=C2c3cccc(-c4cncs4)c3CCN12 [Example 88d, 2-(4-cyclopropyl-1H-imidazol-1-yl)-9-(thiazol-5-yl)-7,8-dihydro-[1,4]diazepino[7,1-a]isoquinolin-5(4H)-one]
34 | 3880 | – | Cc1ncc(-c2cccc3c2CCN2C(=O)CN=C(n4cnc(C5CC5)c4)C=C32)s1 [Example 88e, 2-(4-cyclopropyl-1H-imidazol-1-yl)-9-(2-methylthiazol-5-yl)-7,8-dihydro-[1,4]diazepino[7,1-a]isoquinolin-5(4H)-one]

Compound | IC50 (human mGluR5a receptors) [nM] | IC50 (human mGluR1) [nM] | inhibition at 10 µM (human mGluR1) [%]
COCc1cn(C2=NCC(=O)N3CCc4c(cccc4-c4nccs4)C3=C2)cn1 [Example 71, 2-(4-(methoxymethyl)-1H-imidazol-1-yl)-9-(thiazol-2-yl)-7,8-dihydro-[1,4]diazepino[7,1-a]isoquinolin-5(4H)-one] | 27 | 6400 | –
